In PMC6792352, “Limited Chemical Structural Diversity Found to Modulate Thyroid Hormone Receptor in the Tox21 Chemical Library” (Environmental Health Perspectives, 2019):
Counter-ions that a name gives are not always drawn. Non-standard residues stand in square brackets, D forms with d. Residues, ends and D or L forms follow the SMILES beside them. pGlu = O=C1CC[C@@H](C(=O)O)N1

Experiment: in vitro
Conditions: rat, gh3-tre-luc cells

Compound	CC50 at 24 h (AC50 (uM) modified / 1000) [µM]	also measured
Cn1c(=O)c2c(ncn2CC2OCCO2)n(C)c1=O [Doxofylline]	> 50	
C[C@H]1c2cccc(O)c2C(=O)C2=C(O)[C@]3(O)C(=O)C(C(N)=O)=C(O)[C@@H](N(C)C)[C@@H]3[C@@H](O)[C@@H]21 [Doxycycline hydrochloride]	> 50	
CN(C)CCOC(C)(c1ccccc1)c1ccccn1 (centres unmarked) [Doxylamine succinate]	> 50	
CCN(CC)CCOC(=O)C(c1ccccc1)C1CCCCC1 (centres unmarked) [Drofenine hydrochloride]	21.1	
CCCCc1oc2ccc(NS(C)(=O)=O)cc2c1C(=O)c1ccc(OCCCN(CCCC)CCCC)cc1 [Dronedarone]	9.94	
O=C(CCCN1CC=C(n2c(=O)[nH]c3ccccc32)CC1)c1ccc(F)cc1 [Droperidol]	> 50	
OCC(O)CN1CCN(c2ccccc2)CC1 (centres unmarked) [Dropropizine]	> 50	
C[C@]12CCC(=O)C=C1[C@@H]1C[C@@H]1[C@H]1[C@@H]3[C@@H]4C[C@@H]4[C@@]4(CCC(=O)O4)[C@@]3(C)CC[C@@H]12 [Drospirenone]	> 50	
N[C@H](C(=O)O)[C@H](O)c1ccc(O)c(O)c1 [Droxidopa]	> 50	
CCOc1ccc(NC(N)=O)cc1 [Dulcin]	> 90	
C[C@]12C=CC(=O)N[C@@H]1CC[C@@H]1[C@@H]2CC[C@]2(C)[C@@H](C(=O)Nc3cc(C(F)(F)F)ccc3C(F)(F)F)CC[C@@H]12 [Dutasteride]	> 50	
CCCCOc1ccc(C(=O)CCN2CCCCC2)cc1 [Dyclonine hydrochloride]	4.72	
CC(=O)[C@H]1CC[C@H]2[C@@H]3C=CC4=CC(=O)CC[C@@]4(C)[C@@H]3CC[C@]12C [Dydrogesterone]	> 20	
Cn1c(=O)c2c(ncn2CC(O)CO)n(C)c1=O (centres unmarked) [Dyphylline]	> 20	
O=C(O)/C=C/c1ccccc1 [E-Cinnamic acid]	> 90	
O=C(OCC1CCC2OC2C1)C1CCC2OC2C1 (centres unmarked) [ECC]	> 100	
CCCN(CCC)C(=O)SCC [EPTC]	> 100	
O=c1c2ccccc2[se]n1-c1ccccc1 [Ebselen]	19.6	
CC(C)c1cc2c(cc1S(=O)(=O)O)[C@@]1(C)CCC[C@@](C)(C(=O)O)[C@@H]1CC2 [Ecabet]	> 50	

Compound	CC50 at 24 h (AC50 (uM) modified / 1000) [µM]	also measured
C[C@@H]1O[C@@H](O[C@@H]2[C@@H](O)[C@H](OCCc3ccc(O)c(O)c3)O[C@H](CO[C@@H]3O[C@H](CO)[C@@H](O)[C@H](O)[C@H]3O)[C@H]2OC(=O)/C=C/c2ccc(O)c(O)c2)[C@H](O)[C@H](O)[C@H]1O [Echinacoside]	> 90	
CCCCCCCCCCCCCCCCCCOCC(COP(=O)([O-])OCC[N+](C)(C)C)OC (centres unmarked) [Edelfosine]	43.1	
CCOP(=O)(Sc1ccccc1)Sc1ccccc1 [Edifenphos]		CC50 at 24 h (AC50 (uM) modified / 1000, Tox21_110001=Tox21_301355, viability, 1 nM T3 present, 24 h): > 90 µM
CCc1cn([C@H]2C[C@H](O)[C@@H](CO)O2)c(=O)[nH]c1=O [Edoxudine]	> 50	
CC[N+](C)(C)c1cccc(O)c1 [Edrophonium chloride]	> 20	
CCC1(C2=NCCN2)Cc2ccccc2O1 (centres unmarked) [Efaroxan]	> 50	
O=C1Nc2ccc(Cl)cc2[C@@](C#CC2CC2)(C(F)(F)F)O1 [Efavirenz]	31.4	
NCCCC(N)(C(=O)O)C(F)F (centres unmarked) [Eflornithine hydrochloride]	> 50	
CCOC(=O)COc1ccc2c(=O)cc(-c3ccccc3)oc2c1 [Efloxate]	> 50	
CC1=C(C(=O)OCCN(Cc2ccccc2)c2ccccc2)C(c2cccc([N+](=O)[O-])c2)C(P2(=O)OCC(C)(C)CO2)=C(C)N1 (centres unmarked) [Efonidipine]	23.8	
O=C(O)CN(CCOCCOCCN(CC(=O)O)CC(=O)O)CC(=O)O [Egtazic Acid]	> 50	
CCc1cc(S(=O)(=O)O)c2cc(C(C)C)cccc1-2 [Egualen sodium]	> 50	
CC/C=C\C/C=C\C/C=C\C/C=C\C/C=C\CCCC(=O)O [Eicosapentaenoic acid]	> 50	
CC[C@H](C)[C@H](NC(=O)[C@H](Cc1ccccc1)NC(=O)[C@H](C)NC(=O)[C@H](CC(=O)O)NC(=O)[C@H](CCCCN)NC(=O)[C@H](CO)NC(=O)[C@@H]1CCCN1C(=O)[C@@H]1CCC(=O)N1)C(=O)NCC(=O)N[C@@H](CC(C)C)C(=O)N[C@@H](CCSC)C(N)=O [Eledoisin] ([pGlu]PSKDAFIGLM-NH2)		CC50 at 24 h (AC50 (uM) modified / 1000, Tox21_110001=Tox21_112815, viability, 1 nM T3 present, 24 h): > 50 µM
CN1CCC[C@@H]1Cc1c[nH]c2ccc(CCS(=O)(=O)c3ccccc3)cc12 [Eletriptan]	21.1	
OC(CN1CCC(Cc2ccc(F)cc2)CC1)c1ccc(Cl)cc1 (centres unmarked) [Eliprodil]	> 50	
O=c1oc2c(O)c(O)cc3c(=O)oc4c(O)c(O)cc1c4c23 [Ellagic acid]	> 50	
CC(=O)[C@H]1CC[C@H]2[C@@H]3CC[C@@H]4C[C@H](O)CC[C@]4(C)[C@H]3CC[C@]12C [Eltanolone]		CC50 at 24 h (AC50 (uM) modified / 1000, Tox21_110001=Tox21_112042, viability, 1 nM T3 present, 24 h): > 50 µM
c1cc2c(c(N3CCNCC3)c1)OCCO2 [Eltoprazine hydrochloride]		CC50 at 24 h (AC50 (uM) modified / 1000, Tox21_110001=Tox21_111742, viability, 1 nM T3 present, 24 h): > 50 µM
